47 compounds from patent US20090264415A2 (priority 2004, published 2009) can be followed below.

Read-outs that look alike come from different tables or passages of the source.

For series [1], the system named is phosphodiesterase-4 (PDE-4) extract from U937 cells. In words: Phosphodiesterase-4 inhibiting activity (isotopic two-step method). In kind it is biochemical. The note with it: for IC50: 1.01 μM [3H]cAMP+cAMP.
In series [2] the test system is peripheral blood mononuclear cells (PBMC) stimulated with allogeneic PBMC or EBV-transformed human B cells (RPMI1788). In words: Mixed lymphocyte reaction (MLR) assay. In kind it is cell-based. The note with it: 50% suppression of the MLR, [3H]-thymidine incorporation, read-out: MLR. The method, boiled down: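 Compounds, held as 10 mM DMSO stocks and diluted in culture medium, were added to PBMC stimulated by 30 Gy-irradiated allogeneic PBMC or RPMI1788 cells. Proliferation was read as [3H]-thymidine uptake (1 μCi, final 16 h) after 5 days at 37° C. Inhibition was derived from cpm.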
(In general: Uptake of a labelled nucleoside into DNA is a usual measure of proliferation.)

Series [3] has as its system production of human TNF-α by PBMC in response to LPS. In words: TNF-α assay (LPS-stimulated PBMC, sandwich ELISA). The note with it: LPS 1 μg/ml, 72 hours, read-out: TNF α. The format is cell-based. The method, boiled down:
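Human PBMC isolated from heparinised blood by density gradient (10^6 cells/ml) stimulated with LPS at 1 μg/ml final, with test compound at 0.1, 1 and 10 μM, 72 h at 37° C, 5% CO2. Supernatant TNF-α quantified by sandwich ELISA against recombinant standard curve; % suppression calculated.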
A general note: An ELISA detects its analyte on a solid surface through an enzyme-linked reagent.

The melting point is the temperature, or range, at which the solid turns liquid. On to `CCCCOc1nc(N)nc2ccc(-c3ccccc3F)nc12`, for which the melting point was in the range of 147 to 148 °C.

`CC(=O)Nc1nc2ccc(Cl)nc2c(=O)[nH]1` registered a melting point of 317 to 319 °C.

`COc1ccc(-c2ccc3ncnc(N4CCN(C(=O)Nc5cccs5)CC4)c3n2)cc1OC` [Example 109]: in series [1] (@ 0.09 μM), the “PDE-4 (% inhibition)” value stood at 58% @ 0.09 μM. Further, the IC50 in series [2] was found to be 0.06 µM; in series [3] it was 0.13 µM.

For the compound `CC(C)COc1nc(N)nc2ccc(-c3ccccc3F)nc12`, the melting point was 165 °C.

As for `COc1ccc(-c2ccc3ncnc(N4CCN(C(=O)COc5ccc(Cl)cc5)CC4)c3n2)cc1OC` [Example 113, 4-[(N-4-chlorophenoxy-acetyl)-piperazin-1-yl]-6-(3,4-dimethoxyphenyl)-pyrido[3,2-d]pyrimidine], the “PDE-4 (% inhibition)” value in series [1] (@ 0.4 μM) worked out at 77% @ 0.4 μM. Further, the IC50 turned out to be 0.04 µM in series [2] and 0.3 µM in series [3].

With `Nc1nc(OCc2ccccc2)c2nc(-c3ccccc3F)ccc2n1`, the melting point lay in the range of 200 to 202 °C.

As to `Nc1nc2ccc(Cl)nc2c(=O)[nH]1`, the melting point was above 330 °C.

Take `CCCCOc1nc(N)nc2ccc(-c3ccc(F)cc3)nc12`: the melting point fell in the range of 172 to 173 °C.

Take `CCOc1cc(-c2ccc3ncnc(N4CCN(C(=O)Nc5cccc(Cl)c5)CC4)c3n2)ccc1OC` [Example 213, 4-[N-(3-chloro-phenylcarbamoyl)-piperazin-1-yl]-6-(3-ethoxy-4-methoxy-phenyl)-pyrido[3,2-d]pyrimidine]: the “PDE-4 (% inhibition)” value in series [1] (@ 0.06 μM) is on record as 78% @ 0.06 μM. In addition, the IC50 in series [2] (Homo sapiens, RPMI-1788) turned out to be 0.057 µM; in series [3] (Homo sapiens, PBMC), 0.06 µM.

As for `COc1ccc(-c2ccc3nc(N)nc(N4CCN(c5ccccn5)CC4)c3n2)cc1OC` [Example 47, 2-amino-4-(2-pyridyl-piperazin-1-yl)-6-(3,4-dimethoxyphenyl)-pyrido[3,2-d]pyrimidine], the “PDE-4 (% inhibition)” value in series [1] (@ 0.05 μM) was 64% @ 0.05 μM. Also, the IC50 in series [2] was 0.3 µM; in series [3], 0.05 µM.

On to `CC(C)COc1nc(N)nc2ccc(-c3cccc(F)c3)nc12`, for which the melting point turned out to be 185 °C.

Regarding `CCC(C)Oc1nc(N)nc2ccc(-c3cccc(F)c3)nc12` (stereo not drawn), the melting point was 158 to 159 °C.

For the compound `CC(C)Oc1nc(N)nc2ccc(-c3cccc(F)c3)nc12`, the melting point was 200 to 201 °C.

For `CCCCCOc1nc(N)nc2ccc(-c3ccccc3F)nc12`, the melting point is 136 to 137 °C.

`CCOc1nc(NC(C)=O)nc2ccc(Cl)nc12` displayed a melting point of 233 °C.

With `COc1ccc(-c2ccc3nc(N)nc(N4CCN(C(C)=O)CC4)c3n2)cc1OC` [Example 49, 2-amino-4-(N-acetyl-piperazinyl)-6-(3,4-dimethoxyphenyl)-pyrido[3,2-d]pyrimidine], the “PDE-4 (% inhibition)” value in series [1] (@ 0.04 μM) stood at 48% @ 0.04 μM. Also, the IC50 in series [2] came to 0.07 µM; in series [3], 0.04 µM.

`COc1ccc(-c2ccc3nc(N)nc(N4CCN(C(=O)Nc5ccc(F)c(Cl)c5)CC4)c3n2)cc1OC` [Example 57, 2-amino-4(N-3-chloro-4-fluoro-phenyl-carbamoyl-piperazin-1-yl)-6-(3,4-dimethoxyphenyl)-pyrido[3,2-d]pyrimidine]: the “PDE-4 (% inhibition)” value in series [1] (@ 0.1 μM) was determined as 74% @ 0.1 μM. Besides, the figures for the IC50 in series [2] and in series [3] were 0.004 µM and 0.3 µM, respectively.

Compound `CCC(C)Oc1nc(N)nc2ccc(-c3ccccc3F)nc12` (stereo not drawn) registered a melting point of 159 °C.

`CCCCCOc1nc(N)nc2ccc(-c3cccc(F)c3)nc12` gave a melting point of 142 to 143 °C.

With `CCCOc1nc(NC(C)=O)nc2ccc(Cl)nc12`, the melting point came to 191 °C.

Regarding `COc1ccc(-c2ccc3nc(N)nc(OC(C)C)c3n2)cc1OC` [Example 24, 2-amino-4-isopropoxy-6-(3,4-dimethoxyphenyl)pyrido[3,2-d]pyrimidine], the “PDE-4 (% inhibition)” value in series [1] (@ 0.5 μM) was 29% @ 0.5 μM. For the same compound, the IC50 in series [2] (Homo sapiens, RPMI-1788) was 0.066 µM; in series [3] (Homo sapiens, PBMC) it was 0.5 µM.

`CC(=O)Nc1nc(OCC(C)C)c2nc(Cl)ccc2n1` came in with a melting point of 168 °C.

`CCOc1nc(N)nc2ccc(-c3ccccc3F)nc12` registered a melting point of 182 °C.

Regarding `COc1ccc(-c2ccc3nc(N)nc(N4CCN(c5ccc(F)cc5)CC4)c3n2)cc1OC` [Example 43, 2-amino-4-(4-fluorophenyl-piperazin-1-yl)-6-(3,4-dimethoxyphenyl)-pyrido[3,2-d]pyrimidine], the “PDE-4 (% inhibition)” value in series [1] (@ 0.09 μM) is listed as 61% @ 0.09 μM. Moreover, the IC50 in series [2] stood at 0.3 µM; in series [3] it was 0.09 µM.

Consider `CCCCCOc1nc(NC(C)=O)nc2ccc(Cl)nc12`, for which the melting point amounted to 174 °C.

Regarding `COc1ccc(-c2ccc3ncnc(N4CCN(C(=O)Nc5cccc(Cl)c5)CC4)c3n2)cc1OC(C)C` [Example 214, 4-[N-(3-chloro-phenylcarbamoyl)-piperazin-1-yl]-6-(3-isopropoxy-4-methoxy-phenyl)-pyrido[3,2-d]pyrimidine], the “PDE-4 (% inhibition)” value in series [1] (@ 0.3 μM) is reported as 61% @ 0.3 μM. For the same compound, the IC50 in series [2] (Homo sapiens, RPMI-1788) worked out at 0.05 µM; in series [3] (Homo sapiens, PBMC), 0.3 µM.

Regarding `CC(=O)Nc1nc(OC(C)C)c2nc(Cl)ccc2n1`, the melting point came to 244 °C.

`COc1ccc(-c2ccc3nc(N)nc(N4CCN(C(=O)Nc5cccc(Cl)c5)CC4)c3n2)cc1O` [Example 212]: the “PDE-4 (% inhibition)” value in series [1] (@ 0.9 μM) is listed as 43% @ 0.9 μM. Besides, the IC50 amounted to 0.04 µM in series [2] (Homo sapiens, RPMI-1788) and 0.9 µM in series [3] (Homo sapiens, PBMC).

In the case of `COc1ccc(-c2ccc3nc(N)nc(N4CCN(C(=O)Nc5ccsc5)CC4)c3n2)cc1OC` [Example 54, 2-amino-4(N-3-thienylcarbamoyl-piperazin-1-yl)-6-(3,4-dimethoxyphenyl)-pyrido[3,2-d]pyrimidine], the “PDE-4 (% inhibition)” value in series [1] (@ 0.1 μM) is 62% @ 0.1 μM. In addition, the IC50 in series [2] came out at 0.002 µM; in series [3] it was 0.05 µM.

In turn, `CC(C)COc1nc(N)nc2ccc(-c3ccc(F)cc3)nc12` showed a melting point of 196 °C.

`CC(=O)Nc1nc(OC(C)C)c2nc(-c3ccc(F)cc3)ccc2n1` displayed a melting point of 196 to 197 °C.

`Nc1nc(OCc2ccccc2)c2nc(-c3ccc(F)cc3)ccc2n1` gave a melting point of 225 °C.

Take `NC(=O)c1nc(Cl)ccc1N`: the melting point lay in the range of 176 to 177 °C.

For `COc1ccc(-c2ccc3nc(N)nc(N4CCN(CC(=O)Nc5nccs5)CC4)c3n2)cc1OC` [Example 48, 2-amino-4-[2-(piperazin-1-yl)-acetic acid N-(2-thiazolyl)-amide]-6-(3,4-dimethoxyphenyl)-pyrido[3,2-d]pyrimidine], the “PDE-4 (% inhibition)” value in series [1] (@ 0.06 μM) amounted to 59% @ 0.06 μM. Moreover, the IC50 in series [2] and in series [3] was 0.06 µM throughout.

In the case of `CC(C)Oc1nc(N)nc2ccc(-c3ccc(F)cc3)nc12`, the melting point was in the range of 191 to 192 °C.

As to `CCOc1nc(N)nc2ccc(-c3ccc(F)cc3)nc12`, the melting point is 188 to 189 °C.

Take `COc1ccc(-c2ccc3nc(N)nc(N4CCN(C(=O)Nc5cccc(Cl)c5)CC4)c3n2)cc1OC` [Example 58, 2-amino-4(N-3-chloro-phenyl-carbamoyl-piperazin-1-yl)-6-(3,4-dimethoxy-phenyl)-pyrido[3,2-d]pyrimidine]: the “PDE-4 (% inhibition)” value in series [1] (@ 0.1 μM) worked out at 75% @ 0.1 μM. Besides, the results for the IC50 in series [2] and in series [3] were 0.0004 µM and 0.26 µM, respectively.

For `CCC(C)Oc1nc(N)nc2ccc(-c3ccc(F)cc3)nc12` (stereo not drawn), the melting point was 148 °C.

With `Nc1nc(OCc2ccccc2)c2nc(-c3cccc(F)c3)ccc2n1`, the melting point lay in the range of 199 to 200 °C.

As for `CCCCOc1nc(N)nc2ccc(-c3cccc(F)c3)nc12`, the melting point lay within 160 to 161 °C.

As to `COc1ccc(-c2ccc3nc(N)nc(NCCNC(=O)Nc4cccc(C)c4)c3n2)cc1OC` [Example 261, 2-amino-4-[(3-methylphenylcarbamoyl)-ethylenediamine-1-N-yl]-6-(3,4-dimethoxyphenyl)-pyrido[3,2-d]pyrimidine], in series [1] (@ 10 μM), the “PDE-4 (% inhibition)” value was determined as 86% @ 10 μM. Also, the IC50 in series [2] (Homo sapiens, RPMI-1788) was 0.08 µM; in series [3] (Homo sapiens, PBMC), 0.8 µM.

Consider `CCCCOc1nc(NC(C)=O)nc2ccc(-c3ccc(F)cc3)nc12`, for which the melting point is 170 °C.

`CCOc1nc(N)nc2ccc(-c3cccc(F)c3)nc12` yielded a melting point of 174 °C.

Regarding `CCOC(=O)C1CCN(c2nc(N)nc3ccc(-c4ccc(OC)c(OC)c4)nc23)CC1` [Example 26, 2-amino-4-[4-(ethoxycarbonyl)piperidin-1-yl]-6-(3,4-dimethoxyphenyl)pyrido[3,2-d]pyrimidine], the IC50 in series [1] was found to be 0.25 µM; in series [2] (Homo sapiens, RPMI-1788) it was 2.6 µM; in series [3] (Homo sapiens, PBMC), 0.06 µM.

In turn, `CCC(C)Oc1nc(NC(C)=O)nc2ccc(Cl)nc12` (stereo not drawn) returned a melting point of 143 to 144 °C.

`COc1ccc(-c2ccc3nc(C)nc(N4CCN(C(=O)Nc5cccc(C)c5)CC4)c3n2)cc1OC` [Example 11]: the “PDE-4 (% inhibition)” value in series [1] (@ 0.5 μM) is listed as 69% @ 0.5 μM. The IC50 in series [2] came out at 0.026 µM; in series [3] it was 0.5 µM.

On to `COc1ccc(-c2ccc3ncnc(N4CCN(C(=O)Nc5cccc(C)c5)CC4)c3n2)cc1OC` [Example 8], for which the IC50 stood at 0.016 µM in series [1]; 0.0094 µM in series [2] (Homo sapiens, RPMI-1788); 0.07 µM in series [3] (Homo sapiens, PBMC).
